Experimental data taken from patent publication US9180128B2, “Stable pharmaceutical compositions of 5,10-methylene tetrahydrofolate” (MERCK & CIE, priority 2003, dated 2015).
Where two headings read alike, the source gives them in different places.

Key:
[1] = Storage stability of untreated reference sample; type: physicochemical; settings: storage at +25° C
[2] = physiological common salt solution, +25° C, cited from earlier work

SMILES	% relative stability ([1]; 0 months)	% relative stability ([1]; 0.5 months)	% relative stability ([1]; 1.0 months)	% relative stability ([1]; 1.75 months)	% relative stability ([1]; 2.5 months)	% relative stability ([1]; 4.5 months)	% relative stability ([1]; 9.2 months)	% relative stability ([1]; 19.0 months)	% relative stability ([2]; with the exclusion of air, 0 hours)	% relative stability ([2]; with the exclusion of air, 4.0 hours)	% relative stability ([2]; with the exclusion of air, 24.0 hours)	% relative stability ([2]; with the exclusion of air, 26.0 hours)	% relative stability ([2]; with the exclusion of air, 48.0 hours)	% relative stability ([2]; without the exclusion of air, 0 hours)	% relative stability ([2]; without the exclusion of air, 4.0 hours)	% relative stability ([2]; without the exclusion of air, 24.0 hours)	% relative stability ([2]; without the exclusion of air, 26.0 hours)	% relative stability ([2]; without the exclusion of air, 48.0 hours)
Nc1nc2c(c(=O)[nH]1)N1CN(c3ccc(C(=O)N[C@@H](CCC(=O)[O-])C(=O)O)cc3)C[C@H]1CN2.Nc1nc2c(c(=O)[nH]1)N1CN(c3ccc(C(=O)N[C@@H](CCC(=O)[O-])C(=O)O)cc3)C[C@H]1CN2.[Ca+2] [Co 751, calcium salt of 5,10-methylene-(6R)-tetrahydrofolic acid]	100.0%	92.3%	83.4%	77.2%	71.9%	61.5%	49.1%	43.0%										
Nc1nc2c(c(=O)[nH]1)N1CN(c3ccc(C(=O)N[C@@H](CCC(=O)[O-])C(=O)O)cc3)C[C@H]1CN2.Nc1nc2c(c(=O)[nH]1)N1CN(c3ccc(C(=O)N[C@@H](CCC(=O)[O-])C(=O)O)cc3)C[C@H]1CN2.[Ca+2] [calcium salt of 5,10-methylene-(6R,S)-tetrahydrofolic acid]									100.0%	58.0%	38.0%	18.0%	8.0%	100.0%	84%	12.0%	8.0%	6.0%
